The source of these data is patent US11999716B2, “WDR5 inhibitors and modulators” (priority 2018, dated 2024).

For one experiment, the system named is MV4:11 human cancer cell lines. The experiment can be described thus: Cellular viability / anti-proliferative activity, CellTiter-Glo, 5 day protocol. The format is cell-based. Particulars: Homo sapiens, MV4-11, 120 h, MV4:11 cells; 5 day incubation; CellTiter-Glo; mean of minimum two replicates; read-out: GI50 on cellular proliferation of MV4:11 human cancer cell lines. As for the experimental part:
Cellular Viability of Human Tumor Cell Lines
Anti proliferative activity using MLL-harboring cell lines. […] Viability assays are performed by dispensing 200 cells at 7200 cells/mL into each well of an opaque 384-well plate and adding compounds at the indicated concentrations in a final volume of 32 μL and a final concentration of DMSO of 0.3% for all samples. A certain range of compound concentrations is made through a series of 2-fold dilutions starting 30 μM at the highest, total 22 dilutions. After a set incubation period, 5 day protocol, the viability of cells in each well is assessed using the CellTiter-Glo assay (Promega), read on a 96 Microplane Luminometer (Cytation 3, BioTek). Serial dilutions of each cell type are performed in all assays to generate standard curves and the final densities of cells are determined within the dynamic range of the instrument. GI50 values are calculated based on XLfit software (IDBS, Guildford, UK) with Sigmoidal Dose-Response Model. Each compound is tested in minimum of two replicates. Data are expressed as mean.
For orientation: In ATP-based viability assays light output follows the ATP content of the culture.
Regarding `Cc1cc(CN2CCc3c(cc(Cn4ccn(C)c4=N)cc3-c3ccc(F)cc3C)C2=O)ccc1F` [Example 31, 5-(4-Fluoro-2-methylphenyl)-2-(4-fluoro-3-methylbenzyl)-7-((2-imino-3-methyl-2,3-dihydro-1H-imidazol-1-yl)methyl)-3,4-dihydroisoquinolin-1(2H)-one], the GI50 is under 50 nM. As for `Cc1cc([C@H](C2CC2)N2CCc3c(cc(Cn4ccn(C)c4=N)cc3-c3ccc(F)cc3C)C2=O)ccc1F` [Example 32, (S)-2-(Cyclopropyl(4-fluoro-3-methylphenyl)methyl)-5-(4-fluoro-2-methylphenyl)-7-((2-imino-3-methyl-2,3-dihydro-1H-imidazol-1-yl)methyl)-3,4-dihydroisoquinolin-1(2H)-one], the GI50 was 64 nM.

As for `Cc1ccnc([C@@H](C2CC2)N2CCc3c(cc(Cn4ccn(C)c4=N)cc3-c3ccc(F)cc3C)C2=O)c1` [Example 33, (R)-2-(Cyclopropyl(4-methylpyridin-2-yl)methyl)-5-(4-fluoro-2-methylphenyl)-7-((2-imino-3-methyl-2,3-dihydro-1H-imidazol-1-yl)methyl)-3,4-dihydroisoquinolin-1(2H)-one], the GI50 was 553 nM. `Cc1cc([C@H](C2CC2)N2CCc3c(cc(Cn4ccn(C)c4=N)cc3-c3cccnc3C(F)(F)F)C2=O)ccc1F` [Example 34, (S)-2-(Cyclopropyl(4-fluoro-3-methylphenyl)methyl)-7-((2-imino-3-methyl-2,3-dihydro-1H-imidazol-1-yl)methyl)-5-(2-(trifluoromethyl)pyridin-3-yl)-3,4-dihydroisoquinolin-1(2H)-one]: the GI50 came to 215 nM. With `COc1cc(CN2CCc3c(cc(Cn4ccn(C)c4=N)cc3-c3cccnc3C(F)(F)F)C2=O)cc(OC)c1` [Example 35, 2-(3,5-Dimethoxybenzyl)-7-((2-imino-3-methyl-2,3-dihydro-1H-imidazol-1-yl)methyl)-5-(2-(trifluoromethyl)pyridin-3-yl)-3,4-dihydroisoquinolin-1(2H)-one], the GI50 amounted to 143 nM. The same measure, in the same setting: for `Cc1ccnc([C@H](C2CC2)N2CCc3c(cc(Cn4ccn(C)c4=N)cc3-c3cccnc3C(F)(F)F)C2=O)c1` [Example 36, (S)-2-(Cyclopropyl(4-methylpyridin-2-yl)methyl)-7-((2-imino-3-methyl-2,3-dihydro-1H-imidazol-1-yl)methyl)-5-(2-(trifluoromethyl)pyridin-3-yl)-3,4-dihydroisoquinolin-1(2H)-one] the value was 201 nM; for `Cc1ccnc([C@H](C2CC2)N2CCc3c(cc(Cn4ccn(C)c4=N)cc3-c3ccc(F)cc3C)C2=O)c1` [Example 37, (S)-2-(Cyclopropyl(4-methylpyridin-2-yl)methyl)-5-(4-fluoro-2-methylphenyl)-7-((2-imino-3-methyl-2,3-dihydro-1H-imidazol-1-yl)methyl)-3,4-dihydroisoquinolin-1(2H)-one], under 50 nM. Same read-out and setting: the same measure for `COc1cc(CN2CCc3c(cc(Cn4ccn(C5CC5)c4=N)cc3-c3ccc(F)cc3C)C2=O)cc(OC)c1` [Example 38, 7-((3-Cyclopropyl-2-imino-2,3-dihydro-1H-imidazol-1-yl)methyl)-2-(3,5-dimethoxybenzyl)-5-(4-fluoro-2-methylphenyl)-3,4-dihydroisoquinolin-1(2H)-one]: 95 nM. On to `COc1cc(CN2CCc3c(cc(Cn4ccn(C)c4=N)cc3-c3cn(C)nc3C(F)(F)F)C2=O)cc(OC)c1` [Example 39, 2-(3,5-Dimethoxybenzyl)-7-((2-imino-3-methyl-2,3-dihydro-1H-imidazol-1-yl)methyl)-5-(1-methyl-3-(trifluoromethyl)-1H-pyrazol-4-yl)-3,4-dihydroisoquinolin-1(2H)-one], for which the GI50 is under 50 nM.

In the case of `Cc1cc([C@H](C)N2CCc3c(cc(Cn4ccn(C)c4=N)cc3-c3ccc(F)cc3C)C2=O)ccc1F` [Example 40, (S)-5-(4-Fluoro-2-methylphenyl)-2-(1-(4-fluoro-3-methylphenyl)ethyl)-7-((2-imino-3-methyl-2,3-dihydro-1H-imidazol-1-yl)methyl)-3,4-dihydroisoquinolin-1(2H)-one], the GI50 was under 50 nM. With `COc1ccnc(CN2CCc3c(cc(Cn4ccn(C)c4=N)cc3-c3cn(C)nc3C(F)(F)F)C2=O)c1` [Example 41, 7-((2-Imino-3-methyl-2,3-dihydro-1H-imidazol-1-yl)methyl)-2-((4-methoxypyridin-2-yl)methyl)-5-(1-methyl-3-(trifluoromethyl)-1H-pyrazol-4-yl)-3,4-dihydroisoquinolin-1(2H)-one], the GI50 is 64 nM. As to `COc1ccnc(CN2CCc3c(cc(Cn4ccn(C)c4=N)cc3-c3cn(C)nc3C)C2=O)c1` [Example 42, 5-(1,3-Dimethyl-1H-pyrazol-4-yl)-7-((2-imino-3-methyl-2,3-dihydro-1H-imidazol-1-yl)methyl)-2-((4-methoxypyridin-2-yl)methyl)-3,4-dihydroisoquinolin-1(2H)-one], the GI50 amounted to 291 nM.

For `COc1ccnc(CN2CCc3c(cc(CN4CCN(C)C4=N)cc3-c3cn(C)nc3C(F)(F)F)C2=O)c1` [Example 43, 7-((2-Imino-3-methylimidazolidin-1-yl)methyl)-2-((4-methoxypyridin-2-yl)methyl)-5-(1-methyl-3-(trifluoromethyl)-1H-pyrazol-4-yl)-3,4-dihydroisoquinolin-1(2H)-one], the GI50 was under 50 nM.

On to `COc1ccnc(CN2CCc3c(cc(CN4CCN(C5CC5)C4=N)cc3-c3cn(C)nc3C(F)(F)F)C2=O)c1` [Example 44, 7-((3-Cyclopropyl-2-iminoimidazolidin-1-yl)methyl)-2-((4-methoxypyridin-2-yl)methyl)-5-(1-methyl-3-(trifluoromethyl)-1H-pyrazol-4-yl)-3,4-dihydroisoquinolin-1(2H)-one], for which the GI50 is under 50 nM. For `COc1ccnc(CN2CCc3c(cc(Cn4ccn(C5CC5)c4=N)cc3-c3cn(C)nc3C(F)(F)F)C2=O)c1` [Example 45, 7-((3-Cyclopropyl-2-imino-2,3-dihydro-1H-imidazol-1-yl)methyl)-2-((4-methoxypyridin-2-yl)methyl)-5-(1-methyl-3-(trifluoromethyl)-1H-pyrazol-4-yl)-3,4-dihydroisoquinolin-1(2H)-one], the GI50 was 113 nM. Regarding `COc1ccnc(CN2CCc3c(cc(CN4CCN(C5CC5)C4=N)cc3-c3cn(C)nc3C)C2=O)c1` [Example 46, 7-((3-Cyclopropyl-2-iminoimidazolidin-1-yl)methyl)-5-(1,3-dimethyl-1H-pyrazol-4-yl)-2-((4-methoxypyridin-2-yl)methyl)-3,4-dihydroisoquinolin-1(2H)-one], the GI50 is 449 nM. In the case of `COc1ccnc(CN2CCc3c(cc(CN4CCN(C)C4=N)cc3-c3cn(C)nc3C)C2=O)c1` [Example 47, 5-(1,3-Dimethyl-1H-pyrazol-4-yl)-7-((2-imino-3-methylimidazolidin-1-yl)methyl)-2-((4-methoxypyridin-2-yl)methyl)-3,4-dihydroisoquinolin-1(2H)-one], the GI50 was 165 nM.

For `COc1ccnc(CN2CCc3c(cc(Cn4ccn(C5CC5)c4=N)cc3-c3cn(C)nc3C)C2=O)c1` [Example 48], the GI50 stood at 423 nM.

Still in this experiment, the particulars now being: Homo sapiens, MV4-11, 120 h, read-out: GI50 on cellular proliferation of MV4:11 human cancer cell lines.
Regarding `Cc1ccnc(C(C2CC2)N2CCc3c(cc(Cn4ccn(C)c4=N)cc3-c3ccc(F)cc3C)C2=O)c1` (stereo not shown) [Example 30, 2-(Cyclopropyl(4-methylpyridin-2-yl)methyl)-5-(4-fluoro-2-methylphenyl)-7-((2-imino-3-methyl-2,3-dihydro-1H-imidazol-1-yl)methyl)-3,4-dihydroisoquinolin-1(2H)-one], the GI50 was 95 nM.
